Results published in ChEMBL document CHEMBL1149286 (J Med Chem, 2004).

What was measured:
[1] = molecular target: 5-hydroxytryptamine receptor 7 (Homo sapiens, UniProt P34969); assay: Agonist activity at 5-carboxamidotryptamine desensitized 5HT7 receptor assessed as relaxation of substance P-induced contraction of Dunkin-Hartley guinea pig ileum; format: functional, tissue-based; set-up: concentration or dose not given beside the values; conditions: Cavia porcellus, target entry is the homologue from another species
[2] = molecular target: 5-hydroxytryptamine receptor 2A (Rattus norvegicus, UniProt P14842); assay: (§1) Displacement of [3H]ketanserin from 5HT2A receptor in Wistar Han rat cortex membranes; format: cell membranes, Membrane
[3] = molecular target: 5-hydroxytryptamine receptor 2A (Rattus norvegicus) (UniProt P14842); assay: as §1; format: cell membranes; conditions: Membrane
[4] = molecular target: 5-hydroxytryptamine receptor 7 (Rattus norvegicus, UniProt P32305); assay: Displacement of [3H]LSD from rat recombinant 5HT7 receptor expressed in HEK293 cells; format: cell-based
[5] = molecular target: T1, 5-hydroxytryptamine receptor 1A (Rattus norvegicus, UniProt P19327); assay: Displacement of [3H]8-OH-DPAT from 5HT1A receptor in Wistar Han rat hippocampal membranes; format: cell membranes, Membrane
T1 sequence (P19327 whole entry): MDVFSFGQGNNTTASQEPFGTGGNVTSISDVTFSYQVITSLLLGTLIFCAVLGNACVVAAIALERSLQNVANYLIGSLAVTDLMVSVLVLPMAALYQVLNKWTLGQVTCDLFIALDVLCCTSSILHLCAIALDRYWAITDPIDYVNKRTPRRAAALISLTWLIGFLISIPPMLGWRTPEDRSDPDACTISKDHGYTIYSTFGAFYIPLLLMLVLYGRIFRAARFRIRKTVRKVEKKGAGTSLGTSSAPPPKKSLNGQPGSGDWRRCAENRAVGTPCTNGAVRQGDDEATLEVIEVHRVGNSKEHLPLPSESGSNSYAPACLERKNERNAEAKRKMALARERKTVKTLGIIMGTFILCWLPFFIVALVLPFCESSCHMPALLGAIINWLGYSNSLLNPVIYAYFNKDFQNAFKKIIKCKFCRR

[6] = organism: Rattus norvegicus; assay: Selectivity for rat 5HT7 receptor over rat 5HT2A receptor
[7] = organism: Rattus norvegicus; assay: Selectivity for rat 5HT7 receptor over rat 5HT1A receptor

Chain of 5-hydroxytryptamine receptor 7 (Homo sapiens, UniProt P34969) (P34969 whole entry): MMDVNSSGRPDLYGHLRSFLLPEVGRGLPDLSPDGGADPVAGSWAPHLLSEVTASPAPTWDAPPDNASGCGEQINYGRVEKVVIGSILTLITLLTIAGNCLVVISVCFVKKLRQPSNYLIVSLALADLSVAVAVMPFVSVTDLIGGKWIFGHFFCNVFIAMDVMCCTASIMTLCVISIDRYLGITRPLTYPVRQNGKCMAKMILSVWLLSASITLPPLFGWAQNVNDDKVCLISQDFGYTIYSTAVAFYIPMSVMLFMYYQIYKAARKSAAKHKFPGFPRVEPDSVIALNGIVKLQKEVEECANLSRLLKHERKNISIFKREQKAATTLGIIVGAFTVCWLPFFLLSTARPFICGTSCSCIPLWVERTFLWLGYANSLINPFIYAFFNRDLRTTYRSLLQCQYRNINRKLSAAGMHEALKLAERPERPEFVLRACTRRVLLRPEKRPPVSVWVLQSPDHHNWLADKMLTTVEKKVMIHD
Chain of 5-hydroxytryptamine receptor 7 (Rattus norvegicus, UniProt P32305) (P32305 whole entry): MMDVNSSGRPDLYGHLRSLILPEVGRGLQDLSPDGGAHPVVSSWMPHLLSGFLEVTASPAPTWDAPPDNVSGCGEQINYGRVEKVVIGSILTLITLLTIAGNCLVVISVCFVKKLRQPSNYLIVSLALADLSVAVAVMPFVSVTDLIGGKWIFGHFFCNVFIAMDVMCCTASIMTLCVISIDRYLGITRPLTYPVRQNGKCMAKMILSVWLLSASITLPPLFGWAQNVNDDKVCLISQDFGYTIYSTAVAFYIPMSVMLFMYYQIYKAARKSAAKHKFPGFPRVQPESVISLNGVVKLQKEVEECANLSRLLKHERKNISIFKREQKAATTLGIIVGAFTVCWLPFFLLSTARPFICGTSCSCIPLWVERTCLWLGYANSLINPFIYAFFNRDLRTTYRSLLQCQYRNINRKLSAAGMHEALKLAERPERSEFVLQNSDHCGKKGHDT
Chain of 5-hydroxytryptamine receptor 2A (Rattus norvegicus) (P14842 whole entry): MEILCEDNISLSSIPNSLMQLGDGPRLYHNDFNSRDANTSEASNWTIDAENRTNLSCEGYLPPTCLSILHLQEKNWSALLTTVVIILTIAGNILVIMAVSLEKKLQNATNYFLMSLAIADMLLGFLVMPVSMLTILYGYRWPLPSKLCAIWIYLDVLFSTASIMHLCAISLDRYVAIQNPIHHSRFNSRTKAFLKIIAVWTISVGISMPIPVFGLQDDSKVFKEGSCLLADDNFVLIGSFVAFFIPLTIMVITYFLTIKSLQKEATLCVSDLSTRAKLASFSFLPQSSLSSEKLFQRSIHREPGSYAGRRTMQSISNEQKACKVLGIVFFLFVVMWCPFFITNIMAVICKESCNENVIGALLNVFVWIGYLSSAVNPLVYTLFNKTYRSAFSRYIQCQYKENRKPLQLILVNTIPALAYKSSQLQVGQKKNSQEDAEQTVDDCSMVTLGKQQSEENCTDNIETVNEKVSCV
Chain of 5-hydroxytryptamine receptor 2A (P14842 whole entry): as above

NCCc1c[nH]c2ccc(C(N)=O)cc12 showed an Activity [1] of 100%.
CS(=O)(=O)c1ccccc1N1CCN(CCCCCC(=O)NC2CCCc3ccccc32)CC1 (centres undefined) was tested, and the Ki [2] was > 4000 nM and the Activity [3] was 38%.
COc1ccccc1N1CCN(CCCCCC(=O)NC2CCCc3ccccc32)CC1 (centres undefined) gave an Activity [1] of 91%.
Work on O=C(CCCCCN1CCN(c2ccccc2O)CC1)NC1CCCc2ccccc21 (centres undefined) yielded an Activity [1] of 0%.
With NC(=O)c1ccccc1N1CCN(CCCCCC(=O)NC2CCCc3ccccc32)CC1 (centres undefined) the Ki [2] was > 4000 nM and the Activity [3] was 9%.
COc1ccccc1N1CCN(CC(=O)NC2CCCc3c(OC)cccc32)CC1 (centres undefined) was tested, and the Ki [4] was > 1000 nM.
O=C(CCCCCN1CCN(c2nc3ccccc3[nH]2)CC1)NC1CCCc2ccccc21 (centres undefined) gave a Ki [5] of 2600 nM and a Ki [4] of 356 nM.
O=C(CCCCCN1CCN(c2noc3ccccc23)CC1)NC1CCCc2ccccc21 (centres undefined) gave a Ki [5] of 3900 nM and a Ki [4] of 125 nM.
Compound O=C(CCCCCN1CCN(c2nc3ccccc3o2)CC1)NC1CCCc2ccccc21 (centres undefined) has a Ki [4] of 820 nM.
For CC(=O)c1ccccc1N1CCN(CCCCCC(=O)NC2CCCc3ccccc32)CC1 (centres undefined), the Activity [1] was 79%.
With CSc1ccccc1N1CCN(CCCCCC(=O)NC2CCCc3ccccc32)CC1 (centres undefined) the Activity [1] was 100%, the Selectivity ratio [6] was > 1000 and the Selectivity ratio [7] was 200.
With Cc1ccccc1N1CCN(CCCCCC(=O)NC2CCCc3ccccc32)CC1 (centres undefined) the Activity [1] was 98%.
With COc1ccc2oc(N3CCN(CCCCCC(=O)NC4CCCc5ccccc54)CC3)nc2c1 (centres undefined) the Ki [4] was 704 nM.
